Laboratory results taken from the NIST ThermoML archive (doi:10.1016/j.jct.2013.11.027).

Columns and labels:
[1] = xn = mol fraction of the nth substance listed; conditions: 101 kPa, Liquid; for speed of sound: Sing-around technique in a fixed-path interferometer; for mass density: Vibrating tube method
[2] = refractive index (Na D-line) (dimensionless); xn = mol fraction of the nth substance listed; conditions: 101 kPa, Liquid, Standard Abbe refractometry

CCCCCCCC[n+]1ccn(C)c1.F[B-](F)(F)F [1-methyl-3-octylimidazolium tetrafluoroborate] + C1CCOC1
Conditions	mass density, 298.15 K [kg/m3]	mass density, 308.15 K [kg/m3]	mass density, 318.15 K [kg/m3]	refractive index, 298.15 K	refractive index, 308.15 K	refractive index, 318.15 K	speed of sound, 298.15 K [m/s]	speed of sound, 308.15 K [m/s]	speed of sound, 318.15 K [m/s]
[1], x1 = 0.0963	944.168	934.385	924.531	–	–	–	1310.8	1268.5	1226.8
[1], x1 = 0.2018	987.574	978.487	969.198	–	–	–	1351.2	1313.4	1276.2
[1], x1 = 0.312	1018.46	1010.19	1001.93	–	–	–	1384.9	1350.7	1317.1
[1], x1 = 0.4027	1037.11	1029.2	1021.32	–	–	–	1406.3	1374.4	1343
[1], x1 = 0.4917	1051.3	1043.65	1035.82	–	–	–	1422.9	1392.6	1362.8
[1], x1 = 0.6241	1067.66	1060.32	1053.02	–	–	–	1442.5	1413.9	1385.9
[1], x1 = 0.6862	1073.96	1066.73	1059.49	–	–	–	1450.2	1422.2	1394.9
[1], x1 = 0.7615	1080.76	1073.65	1066.46	–	–	–	1458.6	1431.1	1404.5
[1], x1 = 0.8612	1088.58	1081.55	1074.56	–	–	–	1470.2	1444.2	1416.3
[1], x1 = 1	1097.61	1090.9	1084.17	–	–	–	1481.1	1453.9	1428.2
[2], x1 = 0.0963	–	–	–	1.41425	1.40956	1.40529	–	–	–
[2], x1 = 0.2018	–	–	–	1.42039	1.4162	1.41236	–	–	–
[2], x1 = 0.312	–	–	–	1.42432	1.42045	1.41715	–	–	–
[2], x1 = 0.4027	–	–	–	1.42658	1.4228	1.41965	–	–	–
[2], x1 = 0.4917	–	–	–	1.42817	1.42451	1.42147	–	–	–
[2], x1 = 0.6241	–	–	–	1.42996	1.42631	1.42348	–	–	–
[2], x1 = 0.6862	–	–	–	1.43062	1.42695	1.42415	–	–	–
[2], x1 = 0.7615	–	–	–	1.43129	1.4277	1.42493	–	–	–
[2], x1 = 0.8612	–	–	–	1.43207	1.42846	1.4258	–	–	–
[2], x1 = 1	–	–	–	1.43296	1.42939	1.42684	–	–	–

CCCCCCn1cc[n+](C)c1.F[B-](F)(F)F [1-hexyl-3-methylimidazolium tetrafluoroborate] + C1CCOC1
Conditions	mass density, 298.15 K [kg/m3]	mass density, 308.15 K [kg/m3]	mass density, 318.15 K [kg/m3]	refractive index, 298.15 K	refractive index, 308.15 K	refractive index, 318.15 K	speed of sound, 298.15 K [m/s]	speed of sound, 308.15 K [m/s]	speed of sound, 318.15 K [m/s]
[1], x1 = 0.0989	954.559	945.509	936.105	–	–	–	1306.3	1263.5	1221.2
[1], x1 = 0.2022	1005.23	996.175	987.171	–	–	–	1346.4	1308	1270.1
[1], x1 = 0.3014	1040.84	1032.56	1023.55	–	–	–	1379.6	1344.7	1310.1
[1], x1 = 0.3985	1066.08	1058.03	1049.53	–	–	–	1406.7	1374.4	1342.6
[1], x1 = 0.5109	1089.28	1081.23	1072.72	–	–	–	1431.3	1401.3	1371.8
[1], x1 = 0.5974	1103.2	1095.15	1087.75	–	–	–	1447	1418.5	1390.3
[1], x1 = 0.6974	1116.29	1109.24	1102.04	–	–	–	1462.8	1435.6	1408.7
[1], x1 = 0.8045	1128.3	1121.25	1114.44	–	–	–	1477.3	1451.1	1425.4
[1], x1 = 0.8865	1135.58	1128.53	1121.52	–	–	–	1486.9	1461.3	1436.2
[1], x1 = 1	1145.11	1137.71	1130.49	–	–	–	1496.7	1472	1447.7
[2], x1 = 0.0989	–	–	–	1.41416	1.41006	1.40595	–	–	–
[2], x1 = 0.2022	–	–	–	1.42016	1.41657	1.41275	–	–	–
[2], x1 = 0.3014	–	–	–	1.42373	1.42043	1.4171	–	–	–
[2], x1 = 0.3985	–	–	–	1.42607	1.42284	1.41964	–	–	–
[2], x1 = 0.5109	–	–	–	1.4279	1.42491	1.42175	–	–	–
[2], x1 = 0.5974	–	–	–	1.42888	1.42609	1.42305	–	–	–
[2], x1 = 0.6974	–	–	–	1.42974	1.427	1.42418	–	–	–
[2], x1 = 0.8045	–	–	–	1.4305	1.42774	1.42511	–	–	–
[2], x1 = 0.8865	–	–	–	1.43095	1.42822	1.42548	–	–	–
[2], x1 = 1	–	–	–	1.43167	1.4289	1.42612	–	–	–
